Square brackets hold non-standard residues; d marks the D form. Peptide text beside a SMILES is read from it. Aoe = N[C@@H](CCCCCC(=O)[C@@H]1CO1)C(=O)O
Key:
[1] = tested on: PBSC CD34+ cells; experiment: Ex vivo culture of PBSC CD34+ cells with TSA or MS275 (CD34+CD90+ expansion, cell growth); type: cell-based, human; conditions: for expression of CD34+CD90+ cells after one day exposure: 24 hours exposure then washed or not washed, evaluated on day 3 and day 5; for growth rate compared with DMSO / cell growth (cell number) of CD34+ cells: FIG. 3A; for cell growth (cell number) of CD34+ cells: mean±SDV of three experiments; for absolute number of CD34+CD90+ cells: from day 5 to day 7
[2] = tested on: CD34+ cells; experiment: Annexin V staining (apoptosis); type: cell-based, human; conditions: day 3, 5 and 7
Experimental: To investigate whether the lower total nucleated cell number observed in TSA treated culture was possibly due to apoptosis, annexin V staining with TSA, MS275 or DMSO treated cells on day 3, 5 and 7 was performed.

[3] = tested on: PBMC CD34+ cells; experiment: In vitro colony formation in methylcellulose (CFU assay); type: cell-based, human; conditions: eight days after plating
Experimental: Tubes of MethoCult® H4434 (Stem Cell Technologies) medium were thawed overnight in a 4° C. refrigerator. The next morning CB CD34+ cells were prepared at 10× the final concentration required. Cell suspensions of 2000 cells per 0.3 mL were prepared. Cells were added to 3 mL of MethoCult® medium for duplicate cultures. A 16 gauge blunt-end needle attached to a 3 cc syringe was used to dispense the cells and MethoCult® medium into culture dishes. 1.1 mL of cells was dispensed per 35 mm dish. The two dishes were placed into a 100 mm petri dish and a third, uncovered 35 mm dish containing 3 mL of sterile water was also added. All 3 dishes were then covered within the 100 mm petri dish. […] […] CFUs were counted under the microscopy.
Since the CD34+CD90+ cells are a CD34+ subpopulation with severe combined immunodeficient (SCID) repopulating activity (SRA), The Inventors next test whether the preferential expansion of these cells mediated by TSA or MS-275 treatment can lead to increased hematopoietic differentiation/proliferation in vitro and SRA engraftment in vivo. The Inventors first treated PBMC CD34+ cells with TSA or MS-275 treatments followed by assessment of in vitro colony formation in methylcellulose. […] To quantify large and small colonies, The Inventors classified as large as >50 and small as 5-50 clusters, respectively.

[4] = tested on: primary human CD34+ cells from PBSC; experiment: Screening of compounds which increase CD34+CD90+ cells (high throughput flow cytometry); type: cell-based; conditions: for CD34+CD90+ population compared with that of DMSO treated CD34+ cells: PBSC CD34+ cells, 4 or 5-day culture with cytokines (CC100), FIG. 1A; for absolute number of CD34+CD90+ cells: screen, compared with other compounds, FIG. 1B
From the text: Cells were stained with antihuman CD34 monoclonal antibody conjugated to phycoerythrin (PE), or allophycocyanin (APC), antihuman CD90 conjugated fluorescein isothiocyanate (FITC) or APC, CD38 APC, CD 3 tri-color (TC), CD19 TC, CD11b TC, CD41 TC, CD45 FITC and mouse CD45 APC. The flow cytometry data were collected using FACS Calibur flow cytometer (Becton Dickinson, San Jose, Calif., USA) or and analysed by using FLOWJO software.
To identify or confirm the molecules that expand CD34+CD90+ cells, the Inventors developed an assay using primary human CD34+ cells from PBSC and evaluated CD34 and CD90 expression by high throughput flow cytometry after a 4 or 5-day culture.
Using this assay, the Inventors screened FDA approved 446 compounds and 14 small molecule drugs including a panel of epigenetic modifiers as shown in Table 2. Human PBSC CD34+ cells were purified and cultured in IMDM with fetal bovine serum (FBS; GIBCO; final concentration 30%) and CC100 (a CD34 maintaining culture medium containing stem cell factor; SCF, Flt3 ligand; FL, Interleukin-3; IL3 and Interleukin-6; IL6; Stem Cell Technologies).

[5] = tested on: PBSC CD34+ cells; experiment: Real-time PCR of stem cell related genes; type: cell-based, human; conditions: 3 days of culture, relative to DMSO, p<0.05
From the text: Inventors prepared RNA from cells treated with wild-type or scrambled peptide using TRIzol (Invitrogen). The Inventors synthesized cDNA using iScript cDNA Synthesis kit (Bio-Rad, CA, USA). To quantitate the level of mRNAs expression, The Inventors carried out polymerase chain reaction (PCR) amplification using iScript one-step RT-PCR kit with SYBER Green (Bio-Rad) and the PCR products were detected by use of SYBR green technology (ABI, Foster City, Calif., USA). GAPDH was used as an endogenous control. All samples were run in duplicate. Thermal cycler conditions were 50° C. for 2 minutes, 95° C. for 10 minutes, and 45 cycles of 95° C. for 0.30 minutes and 60° C. for 1 minute. Results were obtained as threshold cycle (Ct) values and normalized gene expression with GAPDH. Data were analyzed based on 2-ΔΔCT method using CFX Manager software (Bio-Rad). For QPCR primers see Table 1.
Next, to investigate the molecular mechanism responsible for the expansion of functional HSCs and HSPC observed following TSA treatment, the Inventors examined expression levels of a number of genes involved in self-renewal or differentiation of stem cells using realtime PCR.

[6] = tested on: PBMC CD34+ cells; experiment: Lentiviral transduction (GFP vector) of CD34+ cells; type: cell-based, human
Experimental: Lentiviral particles were generated by transient co-transfection of 293T cells with the lentiviral vectors pLL3.7, pHR'8.9ΔVPR and pCMV-VSVG. CD34+ cells were infected in medium containing lentiviral particles and 8 μg/ml protamin. The culture medium was then removed and replaced with fresh media.
Next, the Inventors investigated whether expansion of CD34+CD90+ cells by TSA could affect the lentiviral transduction efficacy. A transfer vector encoding green fluorescent protein (GFP) was used for evaluation of lentiviral transduction. PBMC CD34+ cells were cultured with or without TSA for 3 days, followed by lentiviral transduction with protamin twice for 48 hours (FIG. 15A).

[7] = tested on: CD34+ cells; experiment: CFSE labeling to assess cell division; type: cell-based, human; conditions: by day 5, CFSE
Experimental: Primary CD34+ cells were labeled for 10 minutes at 37° C. with 0.5 uM of carboxyfluorescein diacetate succinimidyl ester (CSFE; Invirtogen, NY, USA) in PBS. After […] of culture, cell were labeled with CD34 PE and analyzed for a progressive decline of fluoredcence intensity of CSFE using FACSCalibur flow cytometer.
To assess whether the lower total nucleated cell number observed in TSA treated culture was due to a delay in differentiation or proliferation, the Inventors performed a cell-division-monitoring dye carboxyfluorescein succinimidyl ester (CFSE) assay, a fluorescent cytoplasmic dye which allowed counting of cell divisions of CD34+ cells after in vitro culture. While 66.0% of non-treated CD34+ cells divided at least more than 4 times by day 5, only 9.02% of TSA treated cells went through a similar number of cell divisions (FIG. 3B).
The Inventors then investigated whether TSA treatment led to increased CD34+CD90+ cells through self-renewal proliferation as assessed by surface markers. Using CD34+CD90− cells as a control population, the cell division profile of CD34+CD90+ cells upon TSA treatment was analyzed using the CSFE assay after 5 and 7 days of in vitro culture.

[8] = tested on: CB CD34+ cells; experiment: Engraftment of cultured CD34+ cells in NSG mice (SCID repopulating activity); type: in vivo
Experimental: NSG (NOD.Cg-Prkdcscid Il2rgtm1Wjl/SzJ, The Jackson Laboratory, ME, USA) mice were bred and maintained in the Children's Hospital Boston animal facility. All animal work has been approved by and done according to the guidelines of the IACUC under protocol 10-101832. The CB CD34+ cells treated with wild type-peptide and scrambled-peptide were injected intravenously via the tail vein into sub-lethally irradiated (220 rads) 8 to 16-week-old NSG mice. Engraftment was performed within 24 h after irradiation. Peripheral blood (PB) chimerism was monitored at 2 and 8 weeks post transplantation. Bone marrow (BM) chimerism was monitored at 8 weeks post transplantation. […] The percentage of human CD45+ cells was calculated as follows: % human CD45+ cells=No. human CD45+ cells/(No. human CD45+ cells + No. mouse CD45+ cells)×100. […]
Based on in vitro phenotypic analysis described above, The Inventors transplanted cells after culture for 5 or7 days with cytokine alone or TSA into NSG mice to evaluate immunodeficient (SCID) repopulating activity (SRA) as a measure of enhanced HSPC function. Because Vanheuden et al, reported that severe combined immunodeficient (SCID) repopulating activity (rSRA) is mediated by CD34+CD38CD90+CD45RA− cells after in vitro culture, the Inventors first analyzed SRA activity in peripheral blood (PB) 2 weeks after transplant.

[9] = tested on: cord blood CD34+CD90+ cells; conditions: cited from earlier work
[10] = tested on: CD34+ cells; experiment: UM171 effect on division of CD34+ cells (total cell numbers); type: cell-based; conditions: 50 nM to 500 nM (1 uM); commercial and synthesized UM171

Compound: Nc1ccccc1NC(=O)c1ccc(CNC(=O)OCc2cccnc2)cc1 [MS275]
- expression of CD34+CD90+ cells after one day exposure [1]: limit the expression of CD34+CD90+ cells
- growth rate compared with DMSO [1]: about 2 times lower
- cell growth (cell number) of CD34+ cells [1]: 16.7×10^4±1.06
- absolute number of CD34+CD90+ cells [1]: increased
- apoptotic cells (annexin V) ([2]; 500 nM): did not significantly increased apoptotic cells
- size of colonies derived from CFU-GM compared with control group [3]: much larger than control group
- CD34+CD90+ population compared with that of DMSO treated CD34+ cells [4]: expanded CD34+CD90+ population
- absolute number of CD34+CD90+ cells [4]: expanded the absolute number of CD34+CD90+ cells more than that of other compounds

Compound: O=C(CCCCCCC(=O)Nc1ccccc1)NO [SAHA]
- CD34+CD90+ population compared with that of DMSO treated CD34+ cells [4]: expanded CD34+CD90+ population

Compound: CC(C)n1cnc2c(NCCc3ccc(O)cc3)nc(-c3csc4ccccc34)nc21 [SR1]
- CD34+CD90+ population compared with that of DMSO treated CD34+ cells [4]: expanded CD34+CD90+ population

Compound: CC(/C=C/C(=O)NO)=C\[C@@H](C)C(=O)c1ccc(N(C)C)cc1 [TSA, trichostatin]
- levels of transcripts for GATA1, GATA2, HOXA9, HOXB4, PTEN, SALL4, p53, TPO and CD34 genes [5]: higher levels of transcripts
- lentiviral transduction for CD34+ cells ex vivo [6]: promoted the lentiviral transduction
- percentage of CD34+GFP+ cells ([6]; 3 days culture with TSA, then lentiviral transduction, vs cells without treatment): higher than that of cells without treatment
- CD34+CD90+ cells less divided than CD34+CD90− cells ([7]; TSA treatment): 31.4%
- CD34+CD90+ cells more divided than CD34+CD90− cells ([7]; TSA treatment): about 66.7%
- CD34+ cells divided at least more than 4 times [7]: 9.02%
- percentage of human CD45+ engraftment in peripheral blood ([8]; 2 weeks after transplant, day 5 progeny of 2×10^4 CB CD34+ cells, vs cytokine alone): higher percentage of human CD45+ engraftment
- marrow-repopulating potential (human CD45+ cell engraftment in PB and BM) ([8]; 8 weeks after transplantation): enhances the marrow-repopulating potential
- expression of CD34+CD90+ cells after one day exposure [1]: limit the expression of CD34+CD90+ cells
- growth rate compared with DMSO [1]: about 2 times lower
- cell growth (cell number) of CD34+ cells [1]: 28.3×10^4±0.49
- expansion of CD34+CD90+ cells compared with DMSO treated cells ([1]; day 3, day 5 and day 7, p<0.05): preferential expansion of CD34+CD90+ cells
- absolute number of CD34+CD90+ cells [1]: increased
- expansion of CD34+CD90+ cells (reported) [9]: reported to expand CD34+CD90+ cells
- apoptotic cells (annexin V) ([2]; 50 nM): did not significantly increased apoptotic cells
- size of colonies derived from CFU-GM compared with control group [3]: much larger than control group
- proportion of large (>50 clusters) and small (5-50 clusters) colonies ([3]; FIG. 13B): gave mainly rise to large colonies
- CD34+CD90+ population compared with that of DMSO treated CD34+ cells [4]: expanded CD34+CD90+ population
- absolute number of CD34+CD90+ cells [4]: expanded the absolute number of CD34+CD90+ cells more than that of other compounds

Compound: Cn1nnc(-c2ccc3c(c2)[nH]c2nc(Cc4ccccc4)nc(NC4CCC(N)CC4)c23)n1 (stereo not drawn) [UM171]
- total cell numbers [10]: very similar

Compound: COc1cc2c(NC3CCN(C(C)C)CC3)nc(C3CCCCC3)nc2cc1OCCCN1CCCC1 [UNC0638]
- CD34+CD90+ population compared with that of DMSO treated CD34+ cells [4]: expanded CD34+CD90+ population

Compound: CCCC(CCC)C(=O)O [Valproic acid]
- expansion of CD34+CD90+ cells (reported) [9]: reported to expand CD34+CD90+ cells

Compound: O=C1N[C@@H](Cc2ccccc2)C(=O)N2CCC[C@@H]2C(=O)N[C@@H](CCCCCC(=O)[C@@H]2CO2)C(=O)N[C@H]1Cc1ccccc1 [trapoxin] (cyclo(FF[dP][Aoe]))
- expansion of CD34+CD90+ cells (reported) [9]: reported to expand CD34+CD90+ cells

Reference: patent US20200121721A1, “METHODS FOR GENETIC MODIFICATION OF HEMATOPOIETIC CELLS” (THE BRIGHAM AND WOMEN'S HOSPITAL, INC., priority 2014, published 2020)
